Reference: EP0951284B1, “[…] DERIVATIVES” (priority 1996, dated 1998)
Where a name gives a salt, the structure may show the parent alone.

Target: T1, Human erythrocyte acetylcholinesterase (Homo sapiens, UniProt P22303)
T1 construct: Human erythrocyte acetylcholinesterase (type XIII, Sigma Israel); purchased Sigma Israel type XIII; host or cells: human erythrocytes
Assay: In vitro measurement of acetylcholinesterase (AChE) inhibition (Ellman method)
Assay type: biochemical
Settings: at time of peak activity, incubation 15 to 60 minutes at 37°C
Protocol: Human erythrocyte acetylcholinesterase (type XIII, Sigma Israel), was prepared in a stock solution of 1U/ml, containing Triton (1%) and bovine serum albumin (0.05%) in phosphate buffer (pH 8). The enzyme (0.05U) was incubated with 3-5 different concentrations of test compound (in triplicate) for periods of from 15 to 60 minutes at 37°C. […] The percentage inhibition of AChE by each concentration of drug is calculated by comparison with that of enzyme in the absence of drug.

T1 sequence (P22303 32-617 isoform P22303-2 limits assumed): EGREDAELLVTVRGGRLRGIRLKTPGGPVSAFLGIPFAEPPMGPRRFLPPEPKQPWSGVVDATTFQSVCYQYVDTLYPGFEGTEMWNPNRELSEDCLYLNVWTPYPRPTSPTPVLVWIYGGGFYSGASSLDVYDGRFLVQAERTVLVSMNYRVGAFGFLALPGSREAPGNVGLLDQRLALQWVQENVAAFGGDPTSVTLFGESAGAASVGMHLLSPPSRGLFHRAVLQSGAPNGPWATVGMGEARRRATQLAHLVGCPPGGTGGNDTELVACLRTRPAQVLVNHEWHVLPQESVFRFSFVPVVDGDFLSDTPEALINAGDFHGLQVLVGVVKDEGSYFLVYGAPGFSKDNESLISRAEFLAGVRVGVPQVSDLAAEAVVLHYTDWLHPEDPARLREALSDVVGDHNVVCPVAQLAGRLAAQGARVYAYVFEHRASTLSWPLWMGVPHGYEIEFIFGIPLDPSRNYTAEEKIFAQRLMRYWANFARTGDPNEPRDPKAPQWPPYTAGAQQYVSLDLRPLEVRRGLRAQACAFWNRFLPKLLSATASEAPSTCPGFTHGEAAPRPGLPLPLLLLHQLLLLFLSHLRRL

Row | SMILES | IC50
1 | C#CCN(C)C(C)Cc1cccc(OC(=O)N(C)C)c1 (racemic) [Compound 20, (rac)-3-(N,N-dimethyl-carbamyloxy) -α-methyl-N'-methyl,N'-propargyl phenethylamine HCl] | 1.7 µM
2 | C#CCNCCc1cccc(OC(=O)N(C)CC)c1 [Compound 13] | 30 µM
3 | C#CCNCCc1cccc(OC(=O)N(C)CCC)c1 [Compound 14] | 12.5 µM
4 | C#CCN(C)CCc1cccc(OC(=O)N(C)CC)c1 [Compound 15] | 67.2 µM
5 | C#CCN(C)C(C)Cc1cccc(OC(=O)N(C)CC)c1 (stereo not shown) [Compound 21] | 230 µM

Target: T2, whole brain AChE (Mus musculus, UniProt P21836)
T2 construct: the brains rapidly removed (minus cerebellum), weighed and homogenized in 0.1M phosphate buffer pH 8.0; from tissue; host or cells: mouse brain (minus cerebellum) homogenate supernatant
T2 sequence (P21836 32-614): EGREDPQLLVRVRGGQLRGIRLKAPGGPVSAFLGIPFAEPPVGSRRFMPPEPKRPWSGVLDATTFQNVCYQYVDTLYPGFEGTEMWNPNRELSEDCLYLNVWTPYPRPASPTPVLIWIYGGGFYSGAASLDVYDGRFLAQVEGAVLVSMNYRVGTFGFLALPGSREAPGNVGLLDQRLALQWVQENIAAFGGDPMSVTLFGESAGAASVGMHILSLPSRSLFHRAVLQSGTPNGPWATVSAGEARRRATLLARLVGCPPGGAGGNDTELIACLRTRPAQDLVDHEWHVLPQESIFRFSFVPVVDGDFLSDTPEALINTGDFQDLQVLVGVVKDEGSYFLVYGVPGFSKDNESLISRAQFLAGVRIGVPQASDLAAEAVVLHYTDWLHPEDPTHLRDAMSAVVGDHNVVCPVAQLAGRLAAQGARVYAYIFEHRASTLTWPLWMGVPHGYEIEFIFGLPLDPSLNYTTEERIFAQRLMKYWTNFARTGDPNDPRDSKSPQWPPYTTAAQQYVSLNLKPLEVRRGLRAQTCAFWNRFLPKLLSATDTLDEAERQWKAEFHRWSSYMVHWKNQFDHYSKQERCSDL
Assay: Ex vivo measurement of brain AChE inhibition after sub-cutaneous administration
Assay type: in vivo, mice
Settings: AChE inhibition
Protocol: Test drugs or saline were administered sub-cutaneously to male mice (Sabra strain, 28-35g). At least 4-5 mice were used per dose and a minimum of 3 doses per drug were tested. The mice were sacrificed 15, 30, 60, 70, 90, 120 or 180 minutes after drug administration, the brains rapidly removed (minus cerebellum), weighed and homogenized in 0.1M phosphate buffer pH 8.0, containing Triton (1mg/100g tissue) and centrifuged to remove cell debris. Aliquots (25 µl) of the supernatant were then incubated with acetylthiocholine and DTNB. AChE activity measured as described above. The % inhibition of whole brain AChE by each dose of drug was calculated by comparison with enzyme activity from 3 saline treated control mice run at the same time.

Row | SMILES | Time to peak activity t | Time to return to 50% of peak t
6 | C#CCNCCc1cccc(OC(=O)N(C)CC)c1 [Compound 13] | 30 to 90 min | 120 min
7 | C#CCNCCc1cccc(OC(=O)N(C)CCC)c1 [Compound 14] | 30 min | –
8 | C#CCN(C)CCc1cccc(OC(=O)N(C)CC)c1 [Compound 15] | 30 min | –

Same assay, conditions: sc; sub-cutaneous, mouse whole brain, at peak of activity; read-out: AChE Inhibition Ex vivo ED50 (AC)

Row | SMILES | ED50
9 | C#CCN(C)C(C)Cc1cccc(OC(=O)N(C)C)c1 (racemic) [Compound 20, (rac)-3-(N,N-dimethyl-carbamyloxy) -α-methyl-N'-methyl,N'-propargyl phenethylamine HCl] | 15 µmol/kg
10 | C#CCNCCc1cccc(OC(=O)N(C)CC)c1 [Compound 13] | 53.8 µmol/kg
11 | C#CCNCCc1cccc(OC(=O)N(C)CCC)c1 [Compound 14] | 100 µmol/kg
12 | C#CCN(C)CCc1cccc(OC(=O)N(C)CC)c1 [Compound 15] | 145 µmol/kg

Test system: not listed separately
Assay: Acute toxicity in mice (sub-cutaneous, lethality within 6 hours)
Settings: mouse, in vivo, sc; LD50 divided by ED50 (acetylcholine esterase ex vivo); read-out: Therapeutic Ratio (LD/AC)
Protocol: Drugs were administered sub-cutaneously in at least 3 doses, to a minimum of 10 mice per dose. […] Therapeutic Ratio was calculated as LD50 divided by ED50(acetylcholine esterase ex vivo).

Row | SMILES | selectivity ratio
13 | C#CCN(C)C(C)Cc1cccc(OC(=O)N(C)C)c1 (racemic) [Compound 20, (rac)-3-(N,N-dimethyl-carbamyloxy) -α-methyl-N'-methyl,N'-propargyl phenethylamine HCl] | 11.3
14 | C#CCNCCc1cccc(OC(=O)N(C)CC)c1 [Compound 13] | 8.5
15 | C#CCN(C)CCc1cccc(OC(=O)N(C)CC)c1 [Compound 15] | 8.6

Same assay, conditions: mouse, in vivo, sc; sub-cutaneous, mice, within 6 hours

Row | SMILES | LD50 at 6 h
16 | C#CCN(C)C(C)Cc1cccc(OC(=O)N(C)C)c1 (racemic) [Compound 20, (rac)-3-(N,N-dimethyl-carbamyloxy) -α-methyl-N'-methyl,N'-propargyl phenethylamine HCl] | 170 µmol/kg
17 | C#CCNCCc1cccc(OC(=O)N(C)CC)c1 [Compound 13] | 458 µmol/kg
18 | C#CCN(C)CCc1cccc(OC(=O)N(C)CC)c1 [Compound 15] | 1250 µmol/kg

Test system: MAO-B
Assay: Inhibition of MAO activity ex vivo (brain tissue), PEA substrate
Assay type: in vivo, mice
Settings: mouse brain tissue
Protocol: (§1) Male Sabra mice, weighing 45-50g were injected with test compound solutions (prepared in 0.9% saline). Each dose was administered to two or three mice. The mice were sacrificed two hours after drug administration or at a time corresponding to the peak AChE inhibition time (see Table 6). The brain and liver were rapidly dissected and stored in appropriate vials on ice. The tissues were weighed, diluted to 1/20 in sucrose 0.3M and stored at -20°C before performance of the MAO assay described above. The results given in Table 6 relate to measurements made on brain tissue only.

Row | SMILES | MAO-B Inhibition Ex vivo ED50
19 | C#CCN(C)C(C)Cc1cccc(OC(=O)N(C)C)c1 (racemic) [Compound 20, (rac)-3-(N,N-dimethyl-carbamyloxy) -α-methyl-N'-methyl,N'-propargyl phenethylamine HCl] | 7 µmol/kg
20 | C#CCNCCc1cccc(OC(=O)N(C)CC)c1 [Compound 13] | 50 µmol/kg
21 | C#CCNCCc1cccc(OC(=O)N(C)CCC)c1 [Compound 14] | 0.6 µmol/kg
22 | C#CCN(C)CCc1cccc(OC(=O)N(C)CC)c1 [Compound 15] | 35 µmol/kg

Test system: MAO-A
Assay: Inhibition of MAO activity ex vivo (brain tissue), 5-HT substrate
Assay type: in vivo, mice
Settings: mouse brain tissue
Protocol: as §1

Row | SMILES | MAO-A Inhibition Ex vivo ED50
23 | C#CCN(C)C(C)Cc1cccc(OC(=O)N(C)C)c1 (racemic) [Compound 20, (rac)-3-(N,N-dimethyl-carbamyloxy) -α-methyl-N'-methyl,N'-propargyl phenethylamine HCl] | 6 µmol/kg
24 | C#CCNCCc1cccc(OC(=O)N(C)CC)c1 [Compound 13] | 75 µmol/kg
25 | C#CCNCCc1cccc(OC(=O)N(C)CCC)c1 [Compound 14] | 4.5 µmol/kg
26 | C#CCN(C)CCc1cccc(OC(=O)N(C)CC)c1 [Compound 15] | 35 µmol/kg

Target: T3, MAO-A (Rattus norvegicus, UniProt P21396)
T3 sequence (P21396 1-526): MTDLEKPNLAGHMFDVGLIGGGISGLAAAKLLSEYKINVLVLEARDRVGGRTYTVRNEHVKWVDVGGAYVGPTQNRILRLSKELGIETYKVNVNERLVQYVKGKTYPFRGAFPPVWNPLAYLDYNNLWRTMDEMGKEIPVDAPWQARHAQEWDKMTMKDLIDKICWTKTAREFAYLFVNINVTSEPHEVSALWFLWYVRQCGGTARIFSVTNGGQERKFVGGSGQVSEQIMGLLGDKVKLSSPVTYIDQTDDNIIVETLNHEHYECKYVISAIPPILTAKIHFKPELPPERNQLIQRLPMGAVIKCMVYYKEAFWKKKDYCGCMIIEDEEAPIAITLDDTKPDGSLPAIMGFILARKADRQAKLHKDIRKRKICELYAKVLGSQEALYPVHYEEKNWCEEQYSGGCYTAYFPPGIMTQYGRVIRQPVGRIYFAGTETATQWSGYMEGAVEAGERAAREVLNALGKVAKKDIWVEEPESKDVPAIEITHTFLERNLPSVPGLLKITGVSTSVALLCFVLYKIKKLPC
Assay: Inhibition of MAO activity in vitro, rat brain homogenate, 5-HT substrate
Settings: not given

Row | SMILES | IC50
27 | C#CCN(C)C(C)Cc1cccc(OC(=O)N(C)C)c1 (racemic) [Compound 20, (rac)-3-(N,N-dimethyl-carbamyloxy) -α-methyl-N'-methyl,N'-propargyl phenethylamine HCl] | 0.12 µM
28 | C#CCNCCc1cccc(OC(=O)N(C)CC)c1 [Compound 13] | 3.3 µM
29 | C#CCN(C)CCc1cccc(OC(=O)N(C)CC)c1 [Compound 15] | 1 µM

Same assay, conditions: read-out: MAO-A Inhibition In vitro IC50; rat brain homogenate, 5-HT 1mM

Row | SMILES | IC50
30 | C#CCNCCc1cccc(OC(=O)N(C)CCC)c1 [Compound 14] | 1.8 µM
31 | C#CCN(C)C(C)Cc1cccc(OC(=O)N(C)CC)c1 (stereo not shown) [Compound 21] | 0.12 µM

Target: T4, MAO-B (Rattus norvegicus, UniProt P19643)
T4 sequence (P19643 1-520): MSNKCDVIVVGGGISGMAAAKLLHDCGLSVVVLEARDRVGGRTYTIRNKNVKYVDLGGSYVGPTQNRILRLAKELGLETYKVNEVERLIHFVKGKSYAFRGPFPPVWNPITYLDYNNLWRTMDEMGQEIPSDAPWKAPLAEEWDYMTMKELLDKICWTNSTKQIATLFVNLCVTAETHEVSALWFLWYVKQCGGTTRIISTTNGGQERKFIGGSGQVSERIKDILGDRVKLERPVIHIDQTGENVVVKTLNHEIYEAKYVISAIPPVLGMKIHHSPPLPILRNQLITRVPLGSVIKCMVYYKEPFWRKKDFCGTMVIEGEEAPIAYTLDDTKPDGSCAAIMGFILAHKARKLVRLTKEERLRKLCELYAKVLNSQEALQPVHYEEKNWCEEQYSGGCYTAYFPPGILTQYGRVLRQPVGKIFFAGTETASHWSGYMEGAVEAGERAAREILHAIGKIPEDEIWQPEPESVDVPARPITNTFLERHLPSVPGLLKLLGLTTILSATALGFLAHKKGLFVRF
Assay: Inhibition of MAO activity in vitro, rat brain homogenate, PEA substrate
Assay type: biochemical
Design: The MAO enzyme source was a homogenate of rat brain in 0.3M sucrose; from tissue; host or cells: rat brain homogenate (600G supernatant)
Settings: PEA 50µM
Protocol: The MAO enzyme source was a homogenate of rat brain in 0.3M sucrose, which was centrifuged at 600G for 15 minutes. The supernatant was diluted appropriately in 0.05M phosphate buffer, and pre-incubated with serial dilutions of test compounds for 20 minutes at 37°C. ^14C-Labeled substrates (2-phenylethylamine, hereinafter PEA; 5-hydroxytryptamine, hereinafter 5-HT) were then added, and the incubation continued for a further 20 minutes (PEA), or 30-45 minutes (5-HT). Substrate concentrations used were 50µM (PEA) and 1mM (5-HT). In the case of PEA, enzyme concentration was chosen so that not more than 10% of the substrate was metabolized during the course of the reaction. The deaminated products were extracted into toluene-ethyl acetate (1:1, v/v) containing 0.6% (w/v) 2,5-diphenyloxazole prior to determination by liquid scintillation counting. Radioactivity in the eluate indicates the production of neutral and acidic metabolites formed as a result of MAO activity. Activity of MAO in the sample was expressed as a percentage of control activity in the absence of inhibitors after subtraction of appropriate blank values The activity determined using PEA as substrate is referred to as MAO-B, and that determined using 5-HT as MAO-A.

Row | SMILES | IC50
32 | C#CCN(C)C(C)Cc1cccc(OC(=O)N(C)C)c1 (racemic) [Compound 20, (rac)-3-(N,N-dimethyl-carbamyloxy) -α-methyl-N'-methyl,N'-propargyl phenethylamine HCl] | 0.4 µM
33 | C#CCNCCc1cccc(OC(=O)N(C)CC)c1 [Compound 13] | 8.3 µM
34 | C#CCNCCc1cccc(OC(=O)N(C)CCC)c1 [Compound 14] | 0.3 µM
35 | C#CCN(C)CCc1cccc(OC(=O)N(C)CC)c1 [Compound 15] | 1 µM
36 | C#CCN(C)C(C)Cc1cccc(OC(=O)N(C)CC)c1 (stereo not shown) [Compound 21] | 0.2 µM
